According to patent US11813306B2, “Cyclic tetramer compounds as proprotein convertase subtilisin/kexin type 9 (PCSK9) inhibitors for the treatment of metabolic disorders” (NOVARTIS AG, priority 2018, dated 2023):

Target: human PCSK9 (Homo sapiens, UniProt Q8NBP7)
Test: PCSK9 ligand binding assay (TR-FRET): interference with binding of human PCSK9 to human LDLR
Conditions: for IC50: Human PCSK9 Alexa Fluor 647 / Human LDLR extracellular domain-Europium Kryptate; for Max % inhibition: efficacy (Amax), 100% = 1 uM unlabeled human PCSK9, 0% = DMSO
Experimental: Example 10: PCSK9 Ligand Binding Assay
The PCSK9 binding of the compounds of the disclosure were measured using a time resolved fluorescence resonance energy transfer (TR-FRET) assay. This time resolved fluorescence resonance energy transfer (TR-FRET) assay measures the ability of a compound of the present disclosure to interfere with the binding of human PCSK9 to human LDLR, providing measures of both potency (IC50) and efficacy (Amax).
Human PCSK9 Alexa Fluor 647
Human LDLR extracellular domain-Europium Kryptate
Proxi plate-low volume assay plate (PerkinElmer #6008280)
Greiner V-bottom (Greiner BioOne #781280)
Assay Buffer • 20 mM HEPES, pH 7.5 • 150 mM NaCl • 1 mM CaCl2 • 0.01% v/v Tween20 • 0.01% w/v BSA
A master compound plate was prepared in a Greiner V bottom plate by diluting compounds of the disclosure in dimethylsulfoxide to the correct concentration for the desired top concentration based on the desired final concentration: for a 30 uM final concentration the master plate concentration is 1.5 mM (68 uL DMSO+12 uL 10 mM of a compound of the disclosure), for a 10 uM final concentration the master plate concentration is 0.5 mM (76 uL DMSO+4 uL 10 mM of a compound of the disclosure), for a 3 uM final concentration the master plate concentration is 150 uM (69 uL DMSO+1 uL 10 mM of a compound of the disclosure). These solutions were pipetted into columns 1 and 11 of the compound plate. Threefold serial dilutions were generated in columns 2-10 and 12-20 of the compound plate by transferring 10 uL into 20 uL of DMSO. Columns 21 and 22 of the compound plate were negative controls containing DMSO alone.
An intermediate plate was generated in a Greiner V bottom plate by transferring 8 uL from each well of the master plate into a corresponding well containing 92 uL of assay buffer and mixing thoroughly.
A Proxi plate-low volume assay plate was used for the assay. To all wells of the plate was added 10 uL of 16 nM Human PCSK9 Alexa Fluor 647, followed by 5 uL from the intermediate plate. For the positive control wells in columns 23 and 24 of the plate, 5 uL of unlabeled human PCSK9 was added at 4 uM in assay buffer containing 8% DMSO. Following a 30 minute incubation, 5 uL of 4 nM Human LDLR extracellular domain-Europium Kryptate was added and the mixture was incubated for an additional 2 hours.
The TR-FRET signal was measured on an EnVision or PheraStar instrument with a 60 ms delay, 330 nm excitation and 665 nm emission (FRET), and 330 nm excitation and 615 nm (Europium). The FRET ratio (FRET/Europium) was used for calculations.
No inhibition (0%) was observed from the wells containing DMSO (Control) in columns 21 and 22 of the compound plate. Full inhibition (100%) was observed from the wells containing 1 uM human PCSK9 (Control) in columns 23 and 24 of the plate. Data is expressed as percent inhibition: (value—0%)/(100%-0%).

Sequence of human PCSK9 (Q8NBP7 153-692): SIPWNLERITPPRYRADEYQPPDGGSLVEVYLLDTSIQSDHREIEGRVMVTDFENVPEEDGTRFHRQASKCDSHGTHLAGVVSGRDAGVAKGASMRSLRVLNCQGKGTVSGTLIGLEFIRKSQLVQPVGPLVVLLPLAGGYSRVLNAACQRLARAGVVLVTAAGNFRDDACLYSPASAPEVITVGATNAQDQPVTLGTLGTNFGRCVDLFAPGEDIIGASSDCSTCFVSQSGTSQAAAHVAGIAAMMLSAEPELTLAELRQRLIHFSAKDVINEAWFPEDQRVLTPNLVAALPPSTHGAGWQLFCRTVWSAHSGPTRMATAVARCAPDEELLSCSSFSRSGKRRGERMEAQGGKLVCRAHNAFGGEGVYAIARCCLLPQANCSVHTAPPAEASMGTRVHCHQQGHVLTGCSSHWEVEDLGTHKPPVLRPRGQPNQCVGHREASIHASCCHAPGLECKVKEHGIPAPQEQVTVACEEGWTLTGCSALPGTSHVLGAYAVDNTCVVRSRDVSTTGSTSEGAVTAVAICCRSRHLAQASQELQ
Sequence of human PCSK9 (Q8NBP7 31-152 partner limits assumed): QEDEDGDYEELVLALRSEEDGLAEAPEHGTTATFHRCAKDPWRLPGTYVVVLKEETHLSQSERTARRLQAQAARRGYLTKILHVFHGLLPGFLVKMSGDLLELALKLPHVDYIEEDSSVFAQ

Structure (SMILES) | IC50 [nM] | Max % inhibition [%]
C[C@H]1C(=O)N[C@@H](CO)C(=O)N(C)[C@@]2(Cc3ccc(Cl)cc3)CCCN(C2)C(=O)[C@H](CC(F)(F)F)CC(=O)N1Cc1ccc(Cl)cc1Oc1ccc(-c2cnc(CN(C)C)n2C)cc1 [Compound 20, (3S, 7S, 10S, 13R)-6-(4-chloro-2-(4-(2-((dimethylamino)methyl)-1-methyl-1H-imidazol-5-yl)phenoxy)benzyl)-13-(4-chlorobenzyl)-10-(hydroxymethyl)-7,12-dimethyl-3-(2,2,2-trifluoroethyl)-1,6,9,12-tetraazabicyclo[11.3.1]heptadecane-2,5,8,11-tetraone] | 0.187 | 117.5
COC[C@@H]1NC(=O)[C@H](C)N(Cc2ccc(Cl)cc2Oc2ccc(-c3cnc(CN(C)C)n3C)nc2)C(=O)C[C@@H](Cc2cccc(C)n2)C(=O)N2CCC[C@@](Cc3ccc(Cl)cc3)(C2)N(C)C1=O [Compound 24, (3R, 7S, 10S, 13R)-6-(4-chloro-2-((6-(2-((dimethylamino)methyl)-1-methyl-1H-imidazol-5-yl)pyridin-3-yl)oxy)benzyl)-13-(4-chlorobenzyl)-10-(methoxymethyl)-7,12-dimethyl-3-((6-methylpyridin-2-yl)methyl)-1,6,9,12-tetraazabicyclo[11.3.1]heptadecane-2,5,8,11-tetraone] | 0.277 | 115.7
C[C@H]1C(=O)N[C@@H](CO)C(=O)N[C@@]2(Cc3ccc(Cl)cc3)CCCN(C2)C(=O)[C@H](Cc2ccccc2)CC(=O)N1Cc1ccc(Cl)c(F)c1Oc1ccc(-c2cnc(CN(C)C)n2C)cc1 [Compound 25, (3R, 7S, 10S, 13R)-3-benzyl-6-(4-chloro-2-(4-(2-((dimethylamino)methyl)-1-methyl-1H-imidazol-5-yl)phenoxy)-3-fluorobenzyl)-13-(4-chlorobenzyl)-10-(hydroxymethyl)-7-methyl-1,6,9,12-tetraazabicyclo[11.3.1]heptadecane-2,5,8,11-tetraone] | 0.438 | 100.8
COC[C@@H]1NC(=O)[C@H](C)N(Cc2ncc(Cl)cc2Oc2ccc(-c3cnc(CN(C)C)n3C)cc2)C(=O)C[C@@H](CC(F)(F)F)C(=O)N2CCC[C@@](Cc3ccc(Cl)cc3)(C2)NC1=O [Compound 29, (3S, 7S, 10S, 13R)-6-((5-chloro-3-(4-(2-((dimethylamino)methyl)-1-methyl-1H-imidazol-5-yl)phenoxy)pyridin-2-yl)methyl)-13-(4-chlorobenzyl)-10-(methoxymethyl)-7-methyl-3-(2,2,2-trifluoroethyl)-1,6,9,12-tetraazabicyclo[11.3.1]heptadecane-2,5,8,11-tetraone] | 0.97 | 119.8
C[C@H]1C(=O)N[C@@H](COC(F)F)C(=O)N[C@@]2(Cc3ccc(Cl)cc3)CCCN(C2)C(=O)[C@H](Cc2ccccn2)CC(=O)N1Cc1ccc(Cl)cc1Oc1ccc(-c2cnc(CN3CCCC3)n2C)cc1 [Compound 30, (3R,7S,10S,13R)-6-(4-Chloro-2-(4-(1-methyl-2-(pyrrolidin-1-ylmethyl)-1H-imidazol-5-yl)phenoxy)benzyl)-13-(4-chlorobenzyl)-10-((difluoromethoxy)methyl)-7-methyl-3-(pyridin-2-ylmethyl)-1,6,9,12-tetraazabicyclo[11.3.1]heptadecane-2,5,8,11-tetraone] | 0.819 | 106.2
C[C@H]1C(=O)N[C@@H](CO)C(=O)N[C@@]2(Cc3ccc(Cl)cc3)CCCN(C2)C(=O)[C@H]([C@H]2CCc3ccccc32)CC(=O)N1Cc1ccc(Cl)cc1Oc1ccc(-c2cnc(CN(C)C)n2C)cn1 [Compound 31, (3S, 7S, 10S, 13R)-6-(4-chloro-2-((5-(2-((dimethylamino)methyl)-1-methyl-1H-imidazol-5-yl)pyridin-2-yl)oxy)benzyl)-13-(4-chlorobenzyl)-3-((R)-2,3-dihydro-1H-inden-1-yl)-10-(hydroxymethyl)-7-methyl-1,6,9,12-tetraazabicyclo[11.3.1]heptadecane-2,5,8,11-tetraone] | 1.1 | 98.3

Continued, values first:

IC50 [nM] | Max % inhibition [%] | Structure (SMILES)
0.47 | 107.0 | COC[C@@H]1NC(=O)[C@H](C)N(Cc2ccc(Cl)cc2Oc2ccc(-c3cnc(CN(C)C)n3C)cc2)C(=O)C[C@@H](Cc2ccccn2)C(=O)N2CCC[C@@](Cc3ccc(Cl)cc3)(C2)NC1=O [Compound 21, (3R,7S,10S,13R)-6-(4-Chloro-2-(4-(2-((dimethylamino)methyl)-1-methyl-1H-imidazol-5-yl)phenoxy)benzyl)-13-(4-chlorobenzyl)-10-(methoxymethyl)-7-methyl-3-(pyridin-2-ylmethyl)-1,6,9,12-tetraazabicyclo[11.3.1]heptadecane-2,5,8,11-tetraone]
0.159 | 101.9 | COC[C@@H]1NC(=O)[C@H](C)N(Cc2c(F)cc(Cl)cc2Oc2ccc(-c3cnc(CN(C)C)n3C)cc2)C(=O)C[C@@H](CC(F)(F)F)C(=O)N2CCC[C@@](Cc3ccc(Cl)cc3)(C2)N(C)C1=O [Compound 22, (3S,7S,10S,13R)-6-(4-Chloro-2-(4-(2-((dimethylamino)methyl)-1-methyl-1H-imidazol-5-yl)phenoxy)-6-fluorobenzyl)-13-(4-chlorobenzyl)-10-(methoxymethyl)-7,12-dimethyl-3-(2,2,2-trifluoroethyl)-1,6,9,12-tetraazabicyclo[11.3.1]heptadecane-2,5,8,11-tetraone]
0.463 | 109.3 | COC[C@@H]1NC(=O)[C@H](C)N(Cc2ccc(Cl)cc2Oc2ccc(-c3cnc(CN(C)C)n3C)cc2)C(=O)C[C@@H](Cc2cccnc2)C(=O)N2CCC[C@@](Cc3ccc(Cl)cc3)(C2)NC1=O.Cl [Compound 23, (3R, 7S, 10S, 13R)-6-(4-chloro-2-(4-(2-((dimethylamino)methyl)-1-methyl-1H-imidazol-5-yl)phenoxy)benzyl)-13-(4-chlorobenzyl)-10-(methoxymethyl)-7-methyl-3-(pyridin-3-ylmethyl)-1,6,9,12-tetraazabicyclo[11.3.1]heptadecane-2,5,8,11-tetraone]
0.48 | 98.3 | CC[C@@H]1CC(=O)N(Cc2ccc(Cl)cc2Oc2ccc(-c3cnc(CN4CCCC4)n3C)cc2)[C@@H](C)C(=O)N[C@@H](CO)C(=O)N[C@@]2(Cc3ccc(Cl)cc3)CCCN(C2)C1=O [Compound 26, (3R, 7S, 10S, 13R)-6-(4-chloro-2-(4-(1-methyl-2-(pyrrolidin-1-ylmethyl)-1H-imidazol-5-yl)phenoxy)benzyl)-13-(4-chlorobenzyl)-3-ethyl-10-(hydroxymethyl)-7-methyl-1,6,9,12-tetraazabicyclo[11.3.1]heptadecane-2,5,8,11-tetraone]
0.627 | 111.0 | COC[C@@H]1NC(=O)[C@H](C)N(Cc2ccc(Cl)cc2Oc2ccc(-c3cnc(CN(C)C)n3C)nc2)C(=O)C[C@@H](Cc2ccccc2)C(=O)N2CCC[C@@](Cc3ccc(Cl)cc3)(C2)N(C)C1=O [Compound 27, (3R,7S,10S,13R)-3-Benzyl-6-(4-chloro-2-((6-(2-((dimethylamino)methyl)-1-methyl-1H-imidazol-5-yl)pyridin-3-yl)oxy)benzyl)-13-(4-chlorobenzyl)-10-(methoxymethyl)-7,12-dimethyl-1,6,9,12-tetraazabicyclo[11.3.1]heptadecane-2,5,8,11-tetraone]
0.612 | 114.2 | C[C@H]1C(=O)N[C@@H](CO)C(=O)N[C@@]2(Cc3ccc(Cl)cc3)CCCN(C2)C(=O)[C@H](CC(F)(F)F)CC(=O)N1Cc1c(F)cc(Cl)cc1Oc1ccc(-c2cnc(CN3CCC3)n2C)cc1 [Compound 28, (3S, 7S, 10S, 13R)-6-(2-(4-(2-(azetidin-1-ylmethyl)-1-methyl-1H-imidazol-5-yl)phenoxy)-4-chloro-6-fluorobenzyl)-13-(4-chlorobenzyl)-10-(hydroxymethyl)-7-methyl-3-(2,2,2-trifluoroethyl)-1,6,9,12-tetraazabicyclo[11.3.1]heptadecane-2,5,8,11-tetraone]
